Data as given in patent US20260132123A1, “ABAD INHIBITOR COMPOUNDS” (UNIVERSITY COURT OF THE UNIVERSITY OF ST ANDREWS, priority 2021, published 2026).
Where two headings read alike, the source gives them in different places.

What was measured:
[1] = Mouse hepatocyte stability; assay type: in vitro ADME; parameters: k: unit not given here; details: for Heps Category: hepatocyte metabolism category, mouse; for Cl / half-life / k: mouse hepatocytes; for Cl: clearance; for k: k=absorption rate constant (so in the source)
Description: Table 5: Initial mouse hepatocyte stability and plasma protein binding experiments were undertaken on some of the best exemplars from the representative series with AG18051 a previously published 17β-HSD10 inhibitor (C. R. Kissinger et al., J. Mol. Biol., 342 (2004), p. 943; Lim, Y.-A., Grimm, A., Giese, M. PLoS ONE (2011), 6, e28887.) Ref: shown for comparison. Where k=absorption rate constant Cl=clearance, T1/2=half-life, Heps=hepatocyte metabolism, PPB=plasma protein binding.

17β-HSD10 = molecular target: T1, 17β-HSD10 (Homo sapiens, UniProt Q99714); experiment: 17β-HSD10 (ABAD) enzyme inhibition assay, NADH oxidation read at 340 nm (primary screen and dose response); assay type: biochemical; details: for EC50 / Max. Effect (%) / Hill Slope / Max. Fit / Min. Fit: recombinant 17βHSD10 enzyme assay; for Hill Slope / Max. Fit / Min. Fit: curve fit
T1 construct: Histev (histidine tag with TEV site) (N, cleaved yes); made in house; host or cells: E. coli BL21-CodonPlus
T1 sequence (Q99714 1-261): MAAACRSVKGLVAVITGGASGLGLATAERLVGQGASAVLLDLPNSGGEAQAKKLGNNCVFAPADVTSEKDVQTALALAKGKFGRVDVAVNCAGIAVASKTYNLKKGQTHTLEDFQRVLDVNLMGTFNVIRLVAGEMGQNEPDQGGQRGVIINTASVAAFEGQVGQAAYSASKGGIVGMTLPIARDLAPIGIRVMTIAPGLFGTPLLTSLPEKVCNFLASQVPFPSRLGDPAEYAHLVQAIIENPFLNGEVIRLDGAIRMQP
Summary of the method: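 Screening used a 35 min room-temperature endpoint A340 read after compound (10 μM) and enzyme (2.5 nM, E. coli-expressed, His-tag removed) preincubated 15 min, then 100 μM NADH plus acetoacetyl-CoA added. Dose-response runs tracked absorbance kinetically 45 min; buffer pH 7.4 Tris with BSA, DTT.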

mtsABAD HEK293 cells [2] = experiment: Alamar Blue cell viability assay; assay type: cell-based, human; details: 50 μM compound
mtsABAD HEK293 cells [3] = experiment: Lactate dehydrogenase (LDH) cytotoxicity assay; assay type: cell-based, human; details: 50 μM compound
[4] = Table 5, read-out: Mean ABAD pIC50 (converted)

| Structure (SMILES) | Heps Category [1] | Cl [1] [ml/minute/g liver] | half-life [1] [min] | k [1] | IC50 (17β-HSD10; [4]) [nM] | EC50 (17β-HSD10) [nM] | Max. Effect (%) (17β-HSD10) | Hill Slope (17β-HSD10) | Max. Fit (17β-HSD10) | Min. Fit (17β-HSD10) | Alamar Blue % Viability (50 μM Dose) (mtsABAD HEK293 cells [2]) [%] | LDH % Toxicity (50 μM Dose) (mtsABAD HEK293 cells [3]) [%] | IC50 (17β-HSD10; 17β-HSD10 inhibition, read-out: IC50) [nM] |
| --- | --- | --- | --- | --- | --- | --- | --- | --- | --- | --- | --- | --- | --- |
| COc1cccc(-c2ccccc2[C@@H]2CCCN2C(=O)c2[nH]ncc2Cl)c1 (single isomer, unassigned) [ESC1002757] | High | 62.4 | 5.33 | 0.13 | 105 | 115 | 94 | 0.89 | 95 | −10 | – | – | – |
| Cc1ccsc1C(=O)N1CCC[C@H]1c1ccccc1-c1cccc(Cl)c1 (single isomer, unassigned) [ESC1002769] | High | 71.5 | 4.65 | 0.15 | 170 | 191 | 94 | 1 | 93 | −3 | – | – | – |
| Cc1ccsc1C(=O)N1CCC[C@H]1c1ccccc1-c1ccc(N2CCOCC2)cc1 [ESC1002318] | – | – | – | – | – | 1910 | 91 | 1.1 | 98 | −1 | 85.76 | 2.55 | – |
| Cc1ccsc1C(=O)N1CCC[C@H]1c1ccccc1-c1ccc(S(C)(=O)=O)cc1 [ESC1002319] | – | – | – | – | – | 5890 | 79 | 1 | 101 | −2 | 82.10 | 5.17 | – |
| Cc1ccsc1C(=O)N1CCC[C@H]1c1ccccc1-c1cccc(C(F)(F)F)c1 [ESC1002320] | – | – | – | – | – | 603 | 99 | 0.91 | 101 | −1 | 83.37 | 5.12 | – |
| Cc1ccsc1C(=O)N1CCC[C@H]1c1ccccc1-c1cccc(Cl)c1 [ESC1002321] | – | – | – | – | – | 263 | 105 | 0.92 | 102 | 4 | 84.52 | 5.98 | – |
| Cc1ccsc1C(=O)N1CCC[C@H]1c1ccccc1-c1cccc(S(C)(=O)=O)c1 [ESC1002322] | – | – | – | – | – | > 20000 | 41 | – | – | – | 89.24 | 6.93 | – |
| Cc1ccccc1-c1ccccc1[C@@H]1CCCN1C(=O)c1sccc1C [ESC1002323] | – | – | – | – | – | 468 | 106 | 1.4 | 101 | 7 | 96.19 | 5.03 | – |
| Cc1ccsc1C(=O)N1CCC[C@H]1c1ccccc1-c1ccccc1Cl [ESC1002324] | – | – | – | – | – | 295 | 99 | 1 | 102 | 0 | 85.64 | 5.04 | – |
| COc1ccccc1-c1ccccc1[C@@H]1CCCN1C(=O)c1sccc1C [ESC1002325] | – | – | – | – | – | 309 | 98 | 0.87 | 100 | −11 | 89.12 | 4.36 | – |
| COc1cccc(-c2ccccc2[C@@H]2CCCN2C(=O)c2sccc2C)c1OC [ESC1002326] | – | – | – | – | – | 708 | 97 | 1.1 | 99 | 4 | 88.92 | 5.05 | – |
| Cc1ccsc1C(=O)N1CCC[C@H]1c1ccccc1-c1ccc(Cl)c(C(F)(F)F)c1 [ESC1002327] | – | – | – | – | – | 1450 | 89 | 0.84 | 100 | −7 | 90.36 | 4.61 | – |
| CN(C)CCN(C(=O)c1ccccc1F)c1cccc(N(C)Cc2c[nH]cn2)c1 [ESC1002334, N-[2-(dimethylamino)ethyl]-2-fluoro-N-[3-[1H-imidazol-4-ylmethyl(methyl)amino]phenyl]benzamide] | – | – | – | – | – | > 20000 | 23 | – | – | – | 92.96 | 5.17 | – |
| Cc1ccc(-c2ccccc2[C@@H]2CCCN2C(=O)c2sccc2C)cc1 [ESC1002337] | – | – | – | – | – | 209 | 102 | 1.3 | 99 | −7 | 85.13 | 4.10 | – |
| COc1cccc(-c2ccccc2[C@@H]2CCCN2C(=O)c2sccc2C)c1 [ESC1002338] | – | – | – | – | – | 191 | 101 | 1.1 | 100 | 0 | 82.98 | 4.64 | 191 |
| Cc1ccsc1C(=O)N1CCC[C@H]1c1ccccc1-c1cccc(C)c1C [ESC1002339] | – | – | – | – | – | 525 | 99 | 1.4 | 97 | 7 | 82.52 | 4.39 | – |
| Cc1ccsc1C(=O)N1CCC[C@H]1c1ccccc1-c1ccc(Cl)cc1Cl [ESC1002340] | – | – | – | – | – | 631 | 105 | 1.6 | 96 | −7 | 94.26 | 5.33 | – |
| Cc1ccsc1C(=O)N1CCC[C@H]1c1ccccc1-c1cnn(C2CCOCC2)c1 [ESC1002341] | – | – | – | – | – | 1620 | 91 | 0.87 | 102 | −6 | 96.72 | 5.13 | – |
| CN(Cc1c[nH]cn1)c1cccc(N(CC2CC2)C(=O)c2ccccc2F)c1 [ESC1002342, N-(cyclopropylmethyl)-2-fluoro-N-[3-[1H-imidazol-4-ylmethyl(methyl)amino]phenyl]benzamide] | – | – | – | – | – | 708 | 99 | 1.6 | 95 | −1 | 85.04 | 4.76 | – |
| Cc1ccsc1C(=O)N(CC(C)C)c1cccc(N(C)Cc2c[nH]cn2)c1 [ESC1002597] | Mod | 7.2 | 46.2 | 0.02 | 398 | 398 | 100 | 1.4 | 96 | 4 | – | – | – |
